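48-hour exposure; five concentrations; linearly interpolated endpoints. At the GI50, growth is halved. TGI: concentration producing complete growth inhibition.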
Tests used:
Assay in all cases: growth of human tumour cells (NCI), 48 h
[1] = tested on: MDA-MB-435
[2] = tested on: NCI-H522 lung
[3] = tested on: SF-268 CNS
[4] = tested on: NCI-H460 lung
[5] = tested on: SF-539 CNS
[6] = tested on: U251 CNS
[7] = tested on: EKVX NSCLC
[8] = tested on: OVCAR-8 ovarian
[9] = tested on: SF-295 CNS
[10] = tested on: SNB-19 CNS

Q: How did the GI50 [1] turn out when `Fc1ccc2[nH]cc(-c3nonc3-c3c[nH]c4ccc(Br)cc34)c2c1` was run?
A: 3.27 µM

Q: What about the TGI [1] of the same compound?
A: 12.3 µM

Q: What about the GI50 [2] of the same compound?
A: 1.85 µM

Q: What about the TGI [2] of the same compound?
A: 4.47 µM

Q: What about the GI50 [3] of the same compound?
A: 3.01 µM

Q: What about the TGI [3] of the same compound?
A: 12.4 µM

Q: And the GI50 [4]?
A: 2.07 µM

Q: What about the TGI [4] of the same compound?
A: 4.88 µM

Q: What about the GI50 [5] of the same compound?
A: 2.15 µM

Q: And the TGI [5]?
A: 5.27 µM

Q: And the GI50 [6]?
A: 3.26 µM

Q: And the TGI [6]?
A: 10.3 µM

Q: And the GI50 [7]?
A: 1.88 µM

Q: And the TGI [7]?
A: 6.01 µM

Q: What about the GI50 [8] of the same compound?
A: 3.38 µM

Q: What about the TGI [8] of the same compound?
A: 17.5 µM

Q: What about the GI50 [9] of the same compound?
A: 1.94 µM

Q: What about the TGI [9] of the same compound?
A: 4.2 µM

Q: And the GI50 [10]?
A: 2.25 µM

Q: What about the TGI [10] of the same compound?
A: 5.69 µM

Q: What does the source list for `COc1cc(-c2cc3ncccc3c3nc(N)c4cccnc4c23)cc(OC)c1OC`?
A: GI50 [1]: 0.0455 µM; TGI [1]: 11.2 µM; GI50 [2]: 0.0576 µM; TGI [2]: 12 µM; GI50 [3]: 0.752 µM; TGI [3]: > 100 µM; GI50 [4]: 0.408 µM; TGI [4]: 16.8 µM; GI50 [5]: 0.361 µM; TGI [5]: 2.6 µM; GI50 [6]: 0.553 µM; TGI [6]: 16.9 µM; GI50 [7]: 0.763 µM; TGI [7]: 50.4 µM; GI50 [8]: 0.756 µM; TGI [8]: 46 µM; GI50 [9]: 0.308 µM; TGI [9]: 15.5 µM; GI50 [10]: 0.737 µM; TGI [10]: > 100 µM

Q: Which results are given for `O=C(CC(c1ccccc1)c1c(O)c2ccccc2oc1=O)c1ccccc1` (stereo not given)?
A: TGI [1]: > 100 µM; TGI [2]: > 100 µM; TGI [3]: > 100 µM; TGI [4]: > 100 µM; TGI [5]: > 100 µM; TGI [6]: > 100 µM; TGI [7]: > 100 µM; TGI [8]: > 100 µM; TGI [9]: > 100 µM; TGI [10]: > 100 µM

Q: With `CCCC(=O)NC1=C(Cl)C(=O)c2ccccc2C1=O` as the compound, how does the TGI [1] read?
A: 13.3 µM

Q: What about the TGI [2] of the same compound?
A: 2.37 µM

Q: What about the TGI [3] of the same compound?
A: 30.2 µM

Q: And the TGI [4]?
A: 20 µM

Q: And the TGI [5]?
A: 7.33 µM

Q: And the TGI [6]?
A: 15.3 µM

Q: And the TGI [7]?
A: 16.8 µM

Q: And the TGI [8]?
A: 34.8 µM

Q: And the TGI [9]?
A: 17.1 µM

Q: And the TGI [10]?
A: 36.4 µM

Q: Which results are given for `Nc1ccccc1C(=O)CC1OC(=O)c2ccccc21` (stereo not given)?
A: TGI [1]: > 100 µM; TGI [2]: > 100 µM; TGI [3]: > 100 µM; TGI [4]: > 100 µM; TGI [5]: > 100 µM; TGI [6]: > 100 µM; TGI [7]: > 100 µM; TGI [8]: > 100 µM; TGI [9]: > 100 µM; TGI [10]: > 100 µM

Q: How did the GI50 [1] turn out when `Cc1cc(S(=O)(=O)Nc2nc3cscc3c(=O)n2Cc2ccccc2)c(S)cc1Cl` was run?
A: 44.4 µM

Q: And the TGI [1]?
A: > 100 µM

Q: What about the GI50 [2] of the same compound?
A: 81.6 µM

Q: What about the TGI [2] of the same compound?
A: > 100 µM

Q: What about the GI50 [3] of the same compound?
A: 31 µM

Q: And the TGI [3]?
A: > 100 µM

Q: What about the GI50 [4] of the same compound?
A: 28.8 µM

Q: And the TGI [4]?
A: > 100 µM

Q: What about the GI50 [5] of the same compound?
A: 32.1 µM

Q: What about the TGI [5] of the same compound?
A: > 100 µM

Q: And the GI50 [6]?
A: 34.9 µM

Q: And the TGI [6]?
A: > 100 µM

Q: And the GI50 [7]?
A: 23.8 µM

Q: And the TGI [7]?
A: > 100 µM

Q: And the GI50 [8]?
A: 55.7 µM

Q: What about the TGI [8] of the same compound?
A: > 100 µM

Q: What about the GI50 [9] of the same compound?
A: 23.7 µM

Q: And the TGI [9]?
A: > 100 µM

Q: What about the GI50 [10] of the same compound?
A: 29.1 µM

Q: What about the TGI [10] of the same compound?
A: > 100 µM

Q: With `CCCNNC(=O)/C=C/c1ccc(CNCCc2c(C)[nH]c3ccccc23)cc1` as the compound, how does the GI50 [1] read?
A: 0.0494 µM

Q: And the TGI [1]?
A: 0.464 µM

Q: And the GI50 [2]?
A: 0.0447 µM

Q: What about the TGI [2] of the same compound?
A: 4.19 µM

Q: What about the GI50 [3] of the same compound?
A: 0.0744 µM

Q: What about the TGI [3] of the same compound?
A: 0.951 µM

Q: And the GI50 [4]?
A: 0.0726 µM

Q: What about the TGI [4] of the same compound?
A: 3.57 µM

Q: What about the GI50 [5] of the same compound?
A: 0.0435 µM

Q: And the TGI [5]?
A: 3.78 µM

Q: What about the GI50 [6] of the same compound?
A: 0.0306 µM

Q: And the TGI [6]?
A: 0.207 µM

Q: What about the GI50 [7] of the same compound?
A: 0.074 µM

Q: What about the TGI [7] of the same compound?
A: 3.73 µM

Q: What about the GI50 [8] of the same compound?
A: 0.0149 µM

Q: What about the TGI [8] of the same compound?
A: 3.92 µM

Q: And the GI50 [9]?
A: 0.0471 µM

Q: What about the TGI [9] of the same compound?
A: 0.171 µM

Q: And the GI50 [10]?
A: 0.0768 µM

Q: What about the TGI [10] of the same compound?
A: 2.1 µM

Q: Which GI50 [1] does the source give for `Cc1ccc(C)c2c1C(O)(C#Cc1ccccc1)c1ccccc1C2(O)C#Cc1ccccc1` (stereo not given) here?
A: 2.42 µM

Q: And the TGI [1]?
A: 16.2 µM

Q: And the GI50 [2]?
A: 4.55 µM

Q: What about the TGI [2] of the same compound?
A: > 100 µM

Q: And the GI50 [3]?
A: 3.65 µM

Q: And the TGI [3]?
A: > 100 µM

Q: What about the GI50 [4] of the same compound?
A: 2.38 µM

Q: What about the TGI [4] of the same compound?
A: 12 µM

Q: What about the GI50 [5] of the same compound?
A: 3.42 µM

Q: And the TGI [5]?
A: > 79.3 µM

Q: What about the GI50 [6] of the same compound?
A: 2.76 µM

Q: What about the TGI [6] of the same compound?
A: > 100 µM

Q: What about the GI50 [7] of the same compound?
A: 3.36 µM

Q: What about the TGI [7] of the same compound?
A: > 29 µM

Q: What about the GI50 [8] of the same compound?
A: 3.82 µM

Q: And the TGI [8]?
A: > 100 µM

Q: What about the GI50 [9] of the same compound?
A: 2.91 µM

Q: And the TGI [9]?
A: > 100 µM

Q: And the GI50 [10]?
A: 3.74 µM

Q: What about the TGI [10] of the same compound?
A: > 100 µM

— PubChem BioAssay (NCI)
